The source of these data is US20200261470A1, “COMBINATION TREATMENT WITH ANTIBODY-DRUG CONJUGATES AND PARP INHIBITORS” (IMMUNOGEN, INC., priority 2016, published 2020).

The subject of one assay is HEL-luc cells. Description: Proliferation measured with WST-8 reagent, HEL-luc cells. Format: cell-based, human. To be noted: for IC50: Homo sapiens, HELluc cell line, single agent, read-out: IC50 values for PARP inhibitors in AML cell lines. On the procedure:
(§1) Proliferation was measured following incubation with WST-8 reagent. Synergistic/additive effects were calculated using Compusyn software at varying drug concentrations. Flow cytometry for apoptosis, viability, DNA damage/repair, and cell cycle effects following combination versus single drug treatment were also performed.
Background: Formazan colour is commonly taken as a measure of viable cells.

For another assay, the system named is HL60 cells. Description: Proliferation measured with WST-8 reagent, HL60 cells. The assay is classed as cell-based. The following applies: Homo sapiens, HL-60; HL60 cell line, single agent; read-out: IC50 values for PARP inhibitors in AML cell lines. On the procedure: as §1
Assay [1] relates to Human CD33+ AML cell lines (HEL, MV4-11, and HL60). Description: Proliferation by WST-8 reagent with Compusyn synergy analysis, CD33+ AML cell lines. The following applies: single agent, all CD33+ human AML cell lines tested.
Method: Proliferation was measured by WST-8 reagent. Synergistic/additive effects were calculated using Compusyn software. Flow cytometry was performed to assess apoptosis, cell viability, and cell cycle effects.
For the next assay, the system named is HEL cells. Description: Cell death after DNA-damaging radiation exposure in the presence of olaparib. The assay is classed as cell-based, human. The following applies: graded concentrations of olaparib; 0.5 Gy and 0.75 Gy radiation.
Assay [2] deals with human CD33+ AML (HEL-luciferase) xenografts. Format: in vivo. To be noted: IMGN779 15 mcg/kg, olaparib 100 mg/kg, alone or combined.
Method: In these experiments, stably transfected luciferase-positive human AML cells (HEL) characterized by high hCD33 expression levels were injected via tail vein into sublethally irradiated 6-8 week old SCID mice. […] In vivo systemic leukemia disease burden was evaluated weekly by small animal bioluminescent imaging. Toxicity was determined by clinical examination and weight measurements throughout the experiment. Overall study endpoints were (a) time to overall morbidity/mortality and/or (b) change in leukemia disease burden as compared with vehicle-treated mice or mice treated with single agent therapy. […] Simple stastical analyses will be performed utilizing the Stat Prism statistical software.

Regarding `NC(=O)c1cccc2cn(-c3ccc([C@@H]4CCCNC4)cc3)nc12` [Niraparib, niraparib], the IC50 – broadly, the concentration that gives 50% inhibition – amounted to 7.3 µM with HEL-luc cells and 2.5 µM with HL60 cells.
For the compound `O=C(c1cc(Cc2n[nH]c(=O)c3ccccc23)ccc1F)N1CCN(C(=O)C2CC2)CC1` [Olaparib, olaparib], the values for the IC50 in the assay with HEL-luc cells and in the assay on HL60 cells were 7.4 µM and 8.9 µM, respectively. In assay [1], the “growth inhibition in vitro” value is listed as “dose-dependent grown inhibition”. In addition, the “cell death after DNA-damaging radiation exposure” value in the assay on HEL cells was “correlation in increase cell death and apoptosis with the increase in concentration of olaparib”. In addition, the “median overall survival from inoculation” value in assay [2] turned out to be 33.7 days.
Regarding `CNCc1ccc(-c2[nH]c3cc(F)cc4c3c2CCNC4=O)cc1` [Rucaparib, rucaparib], the half-maximal inhibitory concentration (IC50) in the assay with HEL-luc cells came out at 39 µM; in the assay on HL60 cells, 75 µM.
For the compound `Cn1ncnc1[C@H]1c2n[nH]c(=O)c3cc(F)cc(c23)N[C@@H]1c1ccc(F)cc1` [Talazoparib, talazoparib], in the assay on HEL-luc cells (HEL-luc and HL60 cell lines), the “relative potency among PARP inhibitors” value is “most potent PARP inhibitor”. Also, the IC50 in the assay on HEL-luc cells came to 0.4 µM; in the assay with HL60 cells it was 0.2 µM. Further, the “surviving fraction of cells” value with HEL-luc cells (PARP inhibitor 0.8 μM, IMGN779 800 pM, compared with olaparib and niraparib) is listed as “greatest decrease in surviving fraction of cells”.
Turning to `C[C@]1(c2nc3c(C(N)=O)cccc3[nH]2)CCCN1` [Vellparib, veliparib], the IC50 in the assay with HEL-luc cells is over 100 µM; with HL60 cells it was 88 µM.
